Columns and labels:
[1] = Brain positron emission tomography (PET) imaging study, dynamic PET; assay type: in vivo; conditions: rhesus monkey PET; for order of brain tracer penetration: three 18F-cromolyn analogs compared
Description: Dynamic PET imaging (GE Discovery MI Scanner) in a rhesus monkey was performed with compound 5 (diethyl ester), compound 6 (di-tert-butyl ester), and ^18F-Cromolyn (diacid).

[2] = Measured log D (lipophilicity); assay type: physicochemical

Compound: CCOC(=O)c1cc(=O)c2c(OCC([18F])COc3cccc4oc(C(=O)OCC)cc(=O)c34)cccc2o1 [Compound 5]
- regional brain uptake [1]: uptake in all regions of the brain with the highest in putamen, grey matter and cerebellum followed by caudate, thalamus and white matter
- time of maximum brain uptake [1]: 2 min
- washout from brain [1]: washout was slow
- maximum brain uptake ([1]; at 2 min): 2.3 SUV
- brain uptake during washout ([1]; at 20 min): 2 SUV
- brain uptake during washout ([1]; at 60 min): 1.5 SUV
- order of brain tracer penetration [1]: diethyl ester>di-tert-butyl ester>diacid
- logD [2]: 2.5

Compound: CC(C)(C)OC(=O)c1cc(=O)c2c(OCC([18F])COc3cccc4oc(C(=O)OC(C)(C)C)cc(=O)c34)cccc2o1 [Compound 6]
- order of brain tracer penetration [1]: diethyl ester>di-tert-butyl ester>diacid
- logD [2]: 3.5

Compound: O=C(O)c1cc(=O)c2c(OCC([18F])COc3cccc4oc(C(=O)O)cc(=O)c34)cccc2o1 [^18F-Cromolyn (diacid), reference compound]
- order of brain tracer penetration [1]: diethyl ester>di-tert-butyl ester>diacid
